Test system: testosterone 5α-reductase
Assay: Testosterone 5α-reductase enzymatic activity inhibitory ratio (crude rat prostate enzyme, [4-14C]-testosterone to DHT conversion, TLC)
Format: biochemical, Wristar male rat
Conditions: 37°C, two hours; for inhibitory effect on the testosterone 5α-reductase activity: result in words, Figs. 3-5
Method: A Wristar male rat weighing 250-300 g was sacrificed by bleeding, and its prostata was excised. The prostata was cut into fragments under ice-cooling. A 0.1 M HEPES buffer solution (pH: 7.4) containing 0.25 M sucrose (the buffer solution is hereinafter referred to as buffer solution A) was added to the fragments in the amount three times the wet weight of the fragments. Using a Potter-type homogenizer made of Teflon, the mixture was homogenized. The homogenate was filtered using a stainless mesh of a 200 µ size, and then the filtrate was centrifuged at 3000 rpm (900 xg) for ten minutes. The precipitate was suspended in 2.5 parts of buffer solution A, followed by centrifuging at 3000 rpm for five minutes. The residue recovered was suspended in buffer solution A weighing 0.8 times the wet weight of the fragments to produce a crude enzyme solution. The crude enzyme solution was stored at -70°C.
The test sample (less than 10 µl) previously prepared was added to [4-¹⁴C]-testosterone (1.5 nmol, 2.85 kBq), NADPH (0.5 µmol), and the enzyme solution (30 µl) cited above. To this was added the buffer solution A to the extent that the total volume became 100 µl, to prepare a reaction liquid. An enzymatic reaction was performed using the reaction liquid at 37°C for two hours. The enzymatic reaction was initiated by removing the reaction liquid from an ice-water-cooled bath to a 37°C warm bath. The enzymatic reaction was terminated by cooling the reaction liquid in ice-water. […]
A radiation activity of the developed material on the TLC plate cited above was measured by means of an AMBIS image analyzer.
Two spots shown in a chromatogram were subjected to readings of the radiation activities identified by their positions corresponding to testosterone (T) and dihydrotestosterone (DHT) respectively. […] Defining the conversion rate in the presence of the negative control as 100, a percentage of the conversion rate in the presence of the sample was calculated to determine the degree of the enzymatic activity inhibitory ratio of the sample. […]

| SMILES | inhibitory effect on the testosterone 5α-reductase activity | IC50 (Fig. 1, 120 min, read-out: amount exhibiting a inhibitory ratio of 50%) |
| --- | --- | --- |
| C=C(C)[C@H]1CC=C(C)CC1 [d-limonene] | considerable high inhibitory effect |  |
| CC1(C)[C@@H](O)CC[C@]2(C)[C@H]3C(=O)C=C4[C@@H]5C[C@@](C)(C(=O)O)CC[C@]5(C)CC[C@@]4(C)[C@]3(C)CC[C@@H]12 [sodium β-glycyrrhetinic acid] |  | 500 µM |
| C=C[C@H]1[C@H](O[C@@H]2O[C@H](CO)[C@@H](O)[C@H](O)[C@H]2O)OC=C2C(=O)OCC[C@]21O [swertiamarin] | no inhibitory effect |  |
